Test results reported in patent publication US11090247B2, “Compositions for protecting the skin from heavy metals and formaldehyde” (FNG RESEARCH CO., LTD., priority 2016, dated 2021).

Tests used:
[1] = Removal test of heavy metals of active ingredients (pig skin, ICP-MS): Cu; conditions: contaminated pig skin
Method: (§1) (1) Preparation of Heavy Metal Contamination Sources and Pig Skin Samples
(§2) A pig was slaughtered, flayed and the bristle was shaved. The pig skin was cut to prepare 5*5 cm size of skin samples respectively.
(§3) The said skin samples were cleanly wiped with wet gauze, and then, added to 50 ml of methanol and extracted by shaking with ultrasonic for 60 min. 50 ml of methanol was further added and mixed. The pig skin samples were removed from the extracted solutions to prepare the test solutions.
(§4) The test solutions were analyzed for heavy metal components using an inductively coupled plasma mass spectrometer (ICP-MS, Xseries™ 2, Thermo Fisher Scientific, UK).

[2] = Removal test of heavy metals of active ingredients (pig skin, ICP-MS): Cd; conditions: contaminated pig skin
Method: as §1, §2, §3, §4

[3] = Removal test of heavy metals of active ingredients (pig skin, ICP-MS): Pb; conditions: contaminated pig skin
Method: as §1, §2, §3, §4

[4] = Formaldehyde removing ability test (GC); conditions: 2.0% formaldehyde solution; for Area (mAU*min) 30 min: formaldehyde GC area after 30 min; for Area (mAU*min) 30 min / Area (mAU*min) 180 min: 3 molar equivalents, room temperature; for Area (mAU*min) 180 min: formaldehyde GC area after 180 min; for Area (mAU*min) Initial: formaldehyde GC area, initial state, 3 molar equivalents of compound
human skin = experiment: Skin irritation test of active ingredient (patch method, CTFA guidelines); assay type: in vivo; set-up: key to Degree of irritation: 0–0.1 none, 0.11–0.3 weak, 0.31–0.5 moderate, ≥0.51 strong irritation; conditions: 20 people, patch 24 hours; for Test result(number of subject) (+): (+): Apparent reddening than periphery; for Test result(number of subject) (++): (++): More reddened and swollen than periphery; for Test result(number of subject) (±): (±): slightly reddish than the periphery; for Test result(number of subject) (−): (−): No erythema or particularly no symptoms
Method: A total of 20 people (10 men and 10 women in their 20 s and 30 s) were tested for skin irritation using the patch method according to the guidelines of CTFA (The Cosmetic, Toiletry & Fragrance Association, Inc. Washington, D.C.).
A filter paper disk was placed in an 8 mm diameter, 10 panels of pin chamber.
After 24 hours, the pin chamber was removed, and skin conditions were visually observed.
[Criteria for Skin Irritation]
(−): No erythema or particularly no symptoms; (±): slightly reddish than the periphery; (+): Apparent reddening than periphery; (++): More reddened and swollen than periphery.
[Grade for Skin Irritation]
Degree of irritation 0-0.1: Grade I (unstimulated);
Degree of irritation 0.11-0.3: Grade II (weakly stimulated);
Degree of irritation 0.31-0.5: Grade III (moderately stimulated);
Degree of irritation 0.51 or more: Grade IV (strongly stimulated)

SMILES	Removal of Heavy metals Cu (%) ([1]; 0.1 wt % aqueous solution)	Removal of Heavy metals Cu (%) ([1]; 0.5 wt % aqueous solution)	Removal of Heavy metals Cu (%) ([1]; 1.0 wt % aqueous solution)	Removal of Heavy metals Cd (%) ([2]; 0.1 wt % aqueous solution)	Removal of Heavy metals Cd (%) ([2]; 0.5 wt % aqueous solution)	Removal of Heavy metals Cd (%) ([2]; 1.0 wt % aqueous solution)	Removal of Heavy metals Pb (%) ([3]; 0.1 wt % aqueous solution)	Removal of Heavy metals Pb (%) ([3]; 0.5 wt % aqueous solution)	Removal of Heavy metals Pb (%) ([3]; 1.0 wt % aqueous solution)	Area (mAU*min) 30 min [4]	Area (mAU*min) 180 min [4]	Area (mAU*min) Initial [4]	Degree of irritation (human skin; 0.1 wt %)	Grade (human skin; 0.1 wt %)	Test result(number of subject) (+) (human skin; 0.1 wt %)	Test result(number of subject) (++) (human skin; 0.1 wt %)	Test result(number of subject) (±) (human skin; 0.1 wt %)	Test result(number of subject) (−) (human skin; 0.1 wt %)	Degree of irritation (human skin; 0.5 wt %)	Grade (human skin; 0.5 wt %)	also measured
O=C(O)CN(CCN(CC(=O)O)CC(=O)O)CC(=O)O [1(EDTA), Ethylenediaminetetraacetic acid, reference compound]	86.5%	88.6%	89.2%	82.3%	87.3%	88.3%	84.3%	88.3%	89.6%												
C1CNCCNCCNCCN1 [Cyclen, 1,4,7,10-tetraazacyclododecane]	93.1%	96.6%	97.8%	88.6%	91.1%	91.4%	91.7%	93.7%	94.3%	0.181 mAU*min	0 mAU*min	0.305 mAU*min	0	I (Degree of irritation 0-0.1: Grade I (unstimulated))	0	0	0	20	0	I (Degree of irritation 0-0.1: Grade I (unstimulated))	Test result(number of subject) (+) (human skin; 0.5 wt %): 0; Test result(number of subject) (++) (human skin; 0.5 wt %): 0; Test result(number of subject) (±) (human skin; 0.5 wt %): 0; Test result(number of subject) (−) (human skin; 0.5 wt %): 20; Degree of irritation (human skin; 1.0 wt %): 0.15; Grade (human skin; 1.0 wt %): II (Degree of irritation 0.11-0.3: Grade II (weakly stimulated)); Test result(number of subject) (+) (human skin; 1.0 wt %): 1; Test result(number of subject) (++) (human skin; 1.0 wt %): 0; Test result(number of subject) (±) (human skin; 1.0 wt %): 1; Test result(number of subject) (−) (human skin; 1.0 wt %): 18
O=C(O)CN(CCN(CCN(CC(=O)O)CC(=O)O)CC(=O)O)CCN(CC(=O)O)CC(=O)O [Embodiment 1, 3,6,9,12-tetrakis(carboxymethyl)-3,6,9,12-tetraazatetradecanedioic acid]	95.2%	97.3%	97.5%	91.0%	93.0%	94.1%	91.1%	92.0%	92.1%	0.170 mAU*min	0 mAU*min	0.305 mAU*min	0	I (Degree of irritation 0-0.1: Grade I (unstimulated))	0	0	0	20	0.05	I (Degree of irritation 0-0.1: Grade I (unstimulated))	Test result(number of subject) (+) (human skin; 0.5 wt %): 0; Test result(number of subject) (++) (human skin; 0.5 wt %): 0; Test result(number of subject) (±) (human skin; 0.5 wt %): 1; Test result(number of subject) (−) (human skin; 0.5 wt %): 19; Degree of irritation (human skin; 1.0 wt %): 0.20; Grade (human skin; 1.0 wt %): II (Degree of irritation 0.11-0.3: Grade II (weakly stimulated)); Test result(number of subject) (+) (human skin; 1.0 wt %): 0; Test result(number of subject) (++) (human skin; 1.0 wt %): 0; Test result(number of subject) (±) (human skin; 1.0 wt %): 4; Test result(number of subject) (−) (human skin; 1.0 wt %): 16
O=C(O)c1ccc(N(CCN(CCN(c2ccc(C(=O)O)cc2)c2ccc(C(=O)O)cc2)c2ccc(C(=O)O)cc2)CCN(c2ccc(C(=O)O)cc2)c2ccc(C(=O)O)cc2)cc1 [Embodiment 2, 4,4′,4″,4′″-(((ethane-1,2-diylbis((4-carboxyphenyl)azanediyl))bis(ethane-2,1-diyl))bis(azanetriyl))tetrabenzoic acid]	93.5%	95.8%	96.9%	87.3%	89.7%	90.5%	86.4%	88.6%	89.0%	0.168 mAU*min	0 mAU*min	0.305 mAU*min	0	I (Degree of irritation 0-0.1: Grade I (unstimulated))	0	0	0	20	0	I (Degree of irritation 0-0.1: Grade I (unstimulated))	Test result(number of subject) (+) (human skin; 0.5 wt %): 0; Test result(number of subject) (++) (human skin; 0.5 wt %): 0; Test result(number of subject) (±) (human skin; 0.5 wt %): 0; Test result(number of subject) (−) (human skin; 0.5 wt %): 20; Degree of irritation (human skin; 1.0 wt %): 0.05; Grade (human skin; 1.0 wt %): I (Degree of irritation 0-0.1: Grade I (unstimulated)); Test result(number of subject) (+) (human skin; 1.0 wt %): 0; Test result(number of subject) (++) (human skin; 1.0 wt %): 0; Test result(number of subject) (±) (human skin; 1.0 wt %): 1; Test result(number of subject) (−) (human skin; 1.0 wt %): 19
O=C(O)c1ccc(N(CCN(CCN(c2ccc(C(=O)O)o2)c2ccc(C(=O)O)o2)c2ccc(C(=O)O)o2)CCN(c2ccc(C(=O)O)o2)c2ccc(C(=O)O)o2)o1 [Embodiment 4, 5,5′,5″,5′″-(((ethane-1,2-diylbis((5-carboxyfuran-2-yl)azanediyl))bis(ethane-2,1-diyl))bis(azanetriyl))tetrakis(furan-2-carboxylic acid)]	92.5%	96.2%	97.2%	87.7%	90.6%	91.8%	86.2%	89.7%	90.8%	0.173 mAU*min	0 mAU*min	0.305 mAU*min	0	I (Degree of irritation 0-0.1: Grade I (unstimulated))	0	0	0	20	0	I (Degree of irritation 0-0.1: Grade I (unstimulated))	Test result(number of subject) (+) (human skin; 0.5 wt %): 0; Test result(number of subject) (++) (human skin; 0.5 wt %): 0; Test result(number of subject) (±) (human skin; 0.5 wt %): 0; Test result(number of subject) (−) (human skin; 0.5 wt %): 20; Degree of irritation (human skin; 1.0 wt %): 0.05; Grade (human skin; 1.0 wt %): I (Degree of irritation 0-0.1: Grade I (unstimulated)); Test result(number of subject) (+) (human skin; 1.0 wt %): 0; Test result(number of subject) (++) (human skin; 1.0 wt %): 0; Test result(number of subject) (±) (human skin; 1.0 wt %): 1; Test result(number of subject) (−) (human skin; 1.0 wt %): 19
